Where two headings read alike, the source gives them in different places.
What was measured:
[1] = assay type: in vivo, mice
Text: The principle of this test consists in chronometering the duration for which mice maintain itself on a rod rotating at a constant speed. Compounds which are endowed with sedative or myorelaxing or inhibitory of the motor coordination, will induce a precocious fall, before 120 seconds which are the maximals period of study. […] This test takes place 30 mn and 60 mn after administration. […] Chlorpromazine, major neuroleptic used as positive standard in the Rota-rod Test, caused the fall before the time granted, of 90% of the mice from the dosage of 4 mg/kg by intraperitoneal way.

[2] = Irwin's test (modified, Morpurgo), behaviour in mice; assay type: in vivo; conditions: oral
Protocol: The Irwin's test, modified according to Morpurgo's Technique (1971) has been carried out to search optional alterations of the spontaneous behaviour under the action of the compound of example III or of a H1-antihistaminic of the first generation Dexchloropheniramine, known to induce some effects of drowsiness in the person. After administration by oral way, the mice have been kept under observation for 30 mn then have submitted to a seri. of simple test of behavioural screening after 30 mn, 3 hours and 24 hours.

Muscarinic M2 = target: T1, Muscarinic M2 (Rattus norvegicus, UniProt P10980); assay: biochemical; assay type: binding
T1 sequence (P10980 1-466): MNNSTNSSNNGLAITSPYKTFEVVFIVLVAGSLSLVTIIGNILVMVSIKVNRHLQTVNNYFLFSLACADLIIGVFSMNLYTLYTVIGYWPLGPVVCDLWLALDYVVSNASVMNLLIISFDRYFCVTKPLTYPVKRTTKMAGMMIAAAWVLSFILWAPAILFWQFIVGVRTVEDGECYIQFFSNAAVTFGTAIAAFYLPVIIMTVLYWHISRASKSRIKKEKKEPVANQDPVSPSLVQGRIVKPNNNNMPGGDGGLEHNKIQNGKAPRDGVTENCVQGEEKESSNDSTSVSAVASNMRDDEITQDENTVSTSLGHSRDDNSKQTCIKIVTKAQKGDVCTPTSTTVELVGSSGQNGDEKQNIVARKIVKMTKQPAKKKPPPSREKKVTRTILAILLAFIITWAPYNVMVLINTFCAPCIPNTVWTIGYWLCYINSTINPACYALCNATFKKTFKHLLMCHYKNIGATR

Sigma receptor = target: T2, Sigma receptor (Rattus norvegicus, UniProt Q9R0C9); assay: Affinity for Sigma receptors ([3H](+)3-PPP); assay type: binding
T2 construct: membranar receptors of various rats organs; from tissue; host or cells: rat whole brain
T2 sequence (Q9R0C9 whole entry): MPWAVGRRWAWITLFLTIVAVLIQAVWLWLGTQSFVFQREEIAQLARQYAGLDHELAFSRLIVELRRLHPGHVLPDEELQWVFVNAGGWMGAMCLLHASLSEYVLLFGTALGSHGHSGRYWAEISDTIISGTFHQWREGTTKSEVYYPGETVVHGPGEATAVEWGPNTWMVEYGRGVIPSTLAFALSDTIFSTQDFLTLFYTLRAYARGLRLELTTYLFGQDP
Protocol: (§1) A broad range of membranar receptors of various rats organs has been tested according to the same principle than the H1 receptor under the following conditions which are summarized:
Sigma receptors: whole brain, 2 hours at 22° C. in 50 mM TRIS-ClH buffer (pH 8) against 2 nM of [^3 H] (+)3-PPP (3-(3-hydroxyphenyl)N-(1-propyl) piperidine).
(§2) The more weak is the CI50, the more high is the affinity.

[3] = test system: Central sites to benzodiazepines; assay: Affinity for central sites to benzodiazepines ([3H]-Flunitrazepam); assay type: binding; conditions: rat whole brain; 0.3 nM [3H]-Flunitrazepam, pH 7.1; read-out: CI50 (the source's name)
Protocol: Central sites to benzodiazepines: whole brain, 90 mn at 0° C. in 50 mM TRIS-ClH buffer (pH 7.1) against 0.3 nM [^3 H]-Flunitrazepam.

[4] = target: T3, Peripheral sites to the benzodiazepines (Rattus norvegicus, UniProt P16257); assay: Affinity for peripheral sites to benzodiazepines ([3H]PK 11195); assay type: binding
T3 construct: membranar receptors of various rats organs; from tissue; host or cells: rat cortex
Protocol: as §1
Peripheral sites to the benzodiazepines: Cortex 90 mn at 25° C. in 90 mM PO4 HNa2 /PO4 H2 K buffer, 81 mM ClNa and […] (pH 7.4) against 1 nM [^3 H]PK 11195.
as §2

Adenosine A1 = target: T4, Adenosine A1 (Rattus norvegicus, UniProt P25099); assay: Affinity for adenosine A1 ([3H]cyclohexyladenosine); assay type: binding
T4 construct: membranar receptors of various rats organs; from tissue; host or cells: rat cortex
T4 sequence (P25099 1-326): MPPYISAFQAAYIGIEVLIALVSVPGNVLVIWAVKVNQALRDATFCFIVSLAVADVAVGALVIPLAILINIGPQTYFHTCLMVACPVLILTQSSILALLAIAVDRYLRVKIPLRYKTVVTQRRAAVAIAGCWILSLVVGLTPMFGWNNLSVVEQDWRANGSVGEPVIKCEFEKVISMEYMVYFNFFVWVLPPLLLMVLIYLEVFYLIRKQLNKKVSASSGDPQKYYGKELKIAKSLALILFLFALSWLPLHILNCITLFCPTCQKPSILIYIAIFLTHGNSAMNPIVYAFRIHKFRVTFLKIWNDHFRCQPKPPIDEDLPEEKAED
Protocol: as §1
Adenosine A1: cortex, 90 mn at 25° C. in 50 mM TRIS-ClH buffer (pH 7.7) against 1 nMol of [^3 H] cyclohexyladenosine
as §2

Adenosine A2 = target: T5, Adenosine A2 (Rattus norvegicus, UniProt P30543); assay: Affinity for adenosine A2 ([3H]NECA); assay type: binding
T5 construct: membranar receptors of various rats organs; from tissue; host or cells: rat striatum
T5 sequence (P30543 whole entry): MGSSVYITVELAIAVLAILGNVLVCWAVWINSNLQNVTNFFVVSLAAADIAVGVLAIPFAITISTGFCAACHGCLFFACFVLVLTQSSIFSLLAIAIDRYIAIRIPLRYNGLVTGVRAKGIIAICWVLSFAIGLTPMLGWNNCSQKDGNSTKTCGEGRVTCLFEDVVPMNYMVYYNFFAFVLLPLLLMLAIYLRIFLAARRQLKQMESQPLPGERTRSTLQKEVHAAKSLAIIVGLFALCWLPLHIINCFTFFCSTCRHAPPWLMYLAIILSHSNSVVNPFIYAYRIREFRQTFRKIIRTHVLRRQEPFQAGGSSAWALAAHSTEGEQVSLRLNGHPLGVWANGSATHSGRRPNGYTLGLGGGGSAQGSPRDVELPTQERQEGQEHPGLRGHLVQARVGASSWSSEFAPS
Protocol: as §1
Adenosine A2: striatum 60 mn at 25° in 50 mM TRIS-ClH buffer (pH 7.7) added with 50 nM cyclopentyladenosine, 10 mM Cl2 Mg and 0.1 Unit/ml […] against 4 nM of [^3 H] NECA (5'-N-ethylcarboxamido adenosine).
as §2

GABAA = assay: Affinity for GABAA ([3H]Muscimol); assay type: binding; conditions: rat whole brain; 5 nM [3H]Muscimol, pH 7.2; read-out: CI50 (the source's name)
Protocol: GABAA : whole brain 20 mn at 4° C., in 50 nM TRIS-ClH buffer (pH 7.2) added to 0.5%. TRITON X-100, against 5 nM [^3 H] Muscimol.

GABAB = target: T6, GABAB (Rattus norvegicus, UniProt Q9Z0U4); assay: Affinity for GABAB ([3H]Baclofen); assay type: binding
T6 construct: membranar receptors of various rats organs; from tissue; host or cells: rat cerebellum
T6 sequence (Q9Z0U4 17-960 limits assumed): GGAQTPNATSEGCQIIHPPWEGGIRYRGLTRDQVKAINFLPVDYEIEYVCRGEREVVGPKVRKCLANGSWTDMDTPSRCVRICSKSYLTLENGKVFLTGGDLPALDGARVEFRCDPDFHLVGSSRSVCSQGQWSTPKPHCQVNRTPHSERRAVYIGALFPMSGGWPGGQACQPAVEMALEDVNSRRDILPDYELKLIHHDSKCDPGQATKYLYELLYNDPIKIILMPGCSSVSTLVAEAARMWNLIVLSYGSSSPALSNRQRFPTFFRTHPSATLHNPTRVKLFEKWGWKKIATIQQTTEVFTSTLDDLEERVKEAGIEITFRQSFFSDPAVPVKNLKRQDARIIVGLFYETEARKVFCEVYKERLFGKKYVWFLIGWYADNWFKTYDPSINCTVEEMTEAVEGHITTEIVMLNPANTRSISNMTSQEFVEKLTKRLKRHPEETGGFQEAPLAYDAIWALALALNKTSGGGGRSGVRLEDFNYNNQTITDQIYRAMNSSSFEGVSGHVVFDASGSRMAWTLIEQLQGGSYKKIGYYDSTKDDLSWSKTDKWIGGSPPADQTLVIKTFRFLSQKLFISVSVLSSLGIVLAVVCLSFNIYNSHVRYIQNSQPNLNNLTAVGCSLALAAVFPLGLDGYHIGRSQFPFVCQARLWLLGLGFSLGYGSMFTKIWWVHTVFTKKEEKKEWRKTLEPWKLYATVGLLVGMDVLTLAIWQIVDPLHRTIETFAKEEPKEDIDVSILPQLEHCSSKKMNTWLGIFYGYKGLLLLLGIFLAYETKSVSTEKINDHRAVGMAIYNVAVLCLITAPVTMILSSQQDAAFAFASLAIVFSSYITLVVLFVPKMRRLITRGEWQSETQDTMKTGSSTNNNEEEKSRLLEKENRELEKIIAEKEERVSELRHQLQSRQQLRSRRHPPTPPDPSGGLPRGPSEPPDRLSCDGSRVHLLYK
T6 sequence (O88871 41-940 partner): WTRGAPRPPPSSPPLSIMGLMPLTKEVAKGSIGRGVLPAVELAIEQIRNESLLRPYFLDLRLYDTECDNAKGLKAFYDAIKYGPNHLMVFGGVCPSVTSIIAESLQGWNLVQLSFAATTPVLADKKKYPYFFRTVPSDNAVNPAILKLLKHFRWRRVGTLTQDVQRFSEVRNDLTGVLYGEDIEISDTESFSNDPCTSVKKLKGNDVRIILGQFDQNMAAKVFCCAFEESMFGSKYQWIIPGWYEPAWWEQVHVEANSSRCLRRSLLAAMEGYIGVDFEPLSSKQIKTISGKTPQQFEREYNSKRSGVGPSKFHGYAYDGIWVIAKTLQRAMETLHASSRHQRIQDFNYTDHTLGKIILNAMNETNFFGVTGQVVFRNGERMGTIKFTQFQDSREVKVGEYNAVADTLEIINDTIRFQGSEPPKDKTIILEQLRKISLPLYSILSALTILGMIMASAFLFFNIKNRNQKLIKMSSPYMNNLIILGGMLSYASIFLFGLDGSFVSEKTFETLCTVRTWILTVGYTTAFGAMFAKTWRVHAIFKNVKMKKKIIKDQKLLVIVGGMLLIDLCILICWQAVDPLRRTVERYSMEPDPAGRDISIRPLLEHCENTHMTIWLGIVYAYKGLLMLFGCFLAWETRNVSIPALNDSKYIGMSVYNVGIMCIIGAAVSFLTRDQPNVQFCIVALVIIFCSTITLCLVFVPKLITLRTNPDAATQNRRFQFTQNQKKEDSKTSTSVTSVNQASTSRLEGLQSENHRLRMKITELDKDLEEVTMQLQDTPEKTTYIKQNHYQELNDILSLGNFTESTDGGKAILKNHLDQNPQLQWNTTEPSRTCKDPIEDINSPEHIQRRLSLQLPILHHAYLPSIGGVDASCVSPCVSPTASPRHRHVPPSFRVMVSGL
Protocol: as §1
GABAB : Cerebellum, 10 mn at 22° C. in 50 mM TRIS-ClH buffer (pH 7.4) added to 1.2 mM SO^4 Mg and 2.5 mM Cl2 Ca, against 20 nM of [^3 H] Baclofen.
as §2

[5] = test system: bronchospasm due to histamine; assay: Bronchospasm to histamine aerosol in guinea pigs, intraperitoneal; assay type: in vivo, guinea pig; conditions: for ED50: Cavia porcellus, ip, 0.5 h, read-out: ED50 (efficient dosage at 50%) against histamine bronchospasm
Protocol: Inhalating an aerosol at 1%, of histamine (aqeuous solution in distilled water, nebulization with a apparatus HOSPITAK) causes in the guinea pigs, a bronchospasm which leads with immobilization of the animals on their own side. The time needed for the animals to lie down is measured for 5 minutes maximum.

[6] = test system: bronchospasm due to histamine; assay: Bronchospasm to histamine aerosol in guinea pigs, oral; assay type: in vivo, guinea pig; conditions: single dosage 10 mg/kg
Protocol: By oral way the single dosage of 10 mg/kg has been studied as a function of time.

[7] = target: T7, H1 receptors of rat cortexes (Rattus norvegicus, UniProt P31390); assay: Affinity for H1 receptors, rat cortex membranes ([3H]Mepyramine); assay type: binding; conditions: read-out: CI50 (50% inhibitory concentration) on H1 receptors, 2 nM tritiated Mepyramine, 30 mn, 25° C., pH 7.4
T7 construct: membranar preparations of homogenates of rat cortexes or guinea pig lungs; from tissue; host or cells: rat cortex membranes
T7 sequence (P31390 whole entry): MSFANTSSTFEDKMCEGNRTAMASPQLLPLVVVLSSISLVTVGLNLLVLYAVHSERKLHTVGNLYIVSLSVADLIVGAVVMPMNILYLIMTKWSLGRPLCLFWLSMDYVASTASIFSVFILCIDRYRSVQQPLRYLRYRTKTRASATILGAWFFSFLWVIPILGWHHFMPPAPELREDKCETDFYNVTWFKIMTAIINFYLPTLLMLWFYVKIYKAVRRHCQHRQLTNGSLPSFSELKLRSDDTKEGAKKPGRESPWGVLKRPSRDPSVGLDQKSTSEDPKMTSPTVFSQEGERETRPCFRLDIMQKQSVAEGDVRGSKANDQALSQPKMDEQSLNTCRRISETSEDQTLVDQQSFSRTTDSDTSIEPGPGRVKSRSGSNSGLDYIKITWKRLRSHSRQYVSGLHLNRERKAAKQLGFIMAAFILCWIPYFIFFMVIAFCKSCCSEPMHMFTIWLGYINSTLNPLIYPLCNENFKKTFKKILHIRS
Protocol: (§3) After 30 mn at 25° C. and at pH 7.4, in a 50 mM TRIS-ClH buffer for the membrans of the cortex or a 0.5 M PO4 HNa2 /PO4 H2 K buffer for the lungs membrans, the residual bound fraction of tritiated ligand is counted by scintillation in a liquid medium after filtration on an apparatur of the Brandel's type and several washings.

[8] = target: T8, H1-receptors of guinea pigs lungs (Cavia porcellus, UniProt P31389); assay: Affinity for H1 receptors, guinea pig lung membranes ([3H]Mepyramine); assay type: binding; conditions: read-out: CI50 (50% inhibitory concentration) on H1 receptors, 2 nM tritiated Mepyramine, 30 mn, 25° C., pH 7.4
T8 construct: membranar preparations of homogenates of rat cortexes or guinea pig lungs; from tissue; host or cells: guinea pig lung membranes
T8 sequence (P31389 whole entry): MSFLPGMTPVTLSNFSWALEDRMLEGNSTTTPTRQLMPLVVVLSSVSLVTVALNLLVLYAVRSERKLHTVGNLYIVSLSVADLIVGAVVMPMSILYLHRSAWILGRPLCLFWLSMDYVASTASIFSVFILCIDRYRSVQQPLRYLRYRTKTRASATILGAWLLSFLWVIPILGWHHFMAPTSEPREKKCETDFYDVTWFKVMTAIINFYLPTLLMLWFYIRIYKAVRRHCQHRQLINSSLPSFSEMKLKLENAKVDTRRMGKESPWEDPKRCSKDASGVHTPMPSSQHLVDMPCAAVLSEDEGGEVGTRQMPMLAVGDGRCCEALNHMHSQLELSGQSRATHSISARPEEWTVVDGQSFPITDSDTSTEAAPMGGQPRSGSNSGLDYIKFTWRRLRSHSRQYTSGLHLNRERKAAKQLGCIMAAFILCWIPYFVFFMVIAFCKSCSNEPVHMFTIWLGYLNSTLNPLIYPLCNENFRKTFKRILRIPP
Protocol: as §3

receptors of H1-type = receptors of H1-type (Cavia porcellus, UniProt P31389); assay: Histamine contraction of isolated ileon of guinea pig; conditions: for activity compared with Terfenadine on isolated ileon: difference not significant
Sequence of receptors of H1-type (P31389 whole entry): as above
Text: The shift of the relationship between contracturing effect and concentration of histamine by the compound to be studied, stamps an anti-H1 activity.

Muscarinic M1 = target: T9, Muscarinic M1 (Rattus norvegicus, UniProt P08482); assay: Affinity for muscarinic M1 ([3H]-pirenzepine); assay type: binding; conditions: rat cortex, striatum and hypocampus; 2 nM [3H]-pirenzepine, pH 7.4; read-out: CI50 (the source's name)
T9 construct: membranar receptors of various rats organs; from tissue; host or cells: rat cortex, striatum and hippocampus (pool)
T9 sequence (P08482 1-460): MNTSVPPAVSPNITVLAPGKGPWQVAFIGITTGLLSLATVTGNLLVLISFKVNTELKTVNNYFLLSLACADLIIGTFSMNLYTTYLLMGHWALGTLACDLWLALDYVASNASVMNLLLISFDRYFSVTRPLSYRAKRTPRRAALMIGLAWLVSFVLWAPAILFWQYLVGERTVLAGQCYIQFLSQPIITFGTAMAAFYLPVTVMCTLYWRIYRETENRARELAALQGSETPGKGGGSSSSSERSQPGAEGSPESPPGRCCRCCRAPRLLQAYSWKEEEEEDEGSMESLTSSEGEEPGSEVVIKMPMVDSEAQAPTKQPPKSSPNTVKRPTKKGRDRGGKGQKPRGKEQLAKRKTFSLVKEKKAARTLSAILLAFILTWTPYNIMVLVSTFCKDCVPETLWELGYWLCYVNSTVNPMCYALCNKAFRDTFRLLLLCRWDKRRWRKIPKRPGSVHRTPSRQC
Protocol: Muscarinic M1: pool of cortex, striatum and hypocampus, 60 mn at 25° C. in 10 mM PO4 HNa2 /PO4 H2 K buffer (pH 7.4) against 2 nM [^3 H]-pirenzepinc.

[9] = Single maximal non-toxic dosage by oral way in mice; assay type: in vivo; conditions: single oral dosage until 1000 mg/kg
Protocol: On the other side a mydriasis has been noticed after 3 hours. […] This is less fine than the Irvin's Test during which the animals are handled and interact with the experimenter.

[10] = rat cortex, 1 nM [3H]PK 11195, pH 7.4, read-out: CI50 (the source's name)
[11] = rat cortex, 1 nMol [3H]cyclohexyladenosine, pH 7.7, read-out: CI50 (the source's name)
[12] = rat striatum, 4 nM [3H]NECA, pH 7.7, read-out: CI50 (the source's name)
[13] = rat cerebellum, 20 nM [3H]Baclofen, pH 7.4, read-out: CI50 (the source's name)
[14] = intraperitoneal, 10 mg/kg, 30 minutes after administration

CN(C)CCCN1c2ccccc2Sc2ccc(Cl)cc21 [Chlorpromazine]
mice falling before the time granted (120 seconds) ([1]; intraperitoneal, from 4 mg/kg): 90%

CN(C)CC[C@@H](c1ccc(Cl)cc1)c1ccccn1 [Dexchlorpheniramine]
behavioural alteration (Irwin's test) ([2]; 100 mg/kg, 30 mn): a hyperactivity and a slight irritability | behavioural alteration (hyperactivity and slight irritability) ([2]; 100 mg/kg, 3 hours): persisting | behavioural alteration (hyperactivity and slight irritability) ([2]; 100 mg/kg, 24 hours): disappearing | ocular effect (Irwin's test) ([2]; 100 mg/kg, after 3 hours): mydriasis

COc1ccc(CN(CCN(C)C)c2ccccn2)cc1 [Mepyramine]
IC50 (Muscarinic M2): 3.5 µM | IC50 (Sigma receptor): 0.59 µM | affinity for Sigma-receptor, times weaker than pentazocine (Sigma receptor; versus pentazocine): ~20 times weaker | IC50 [3]: > 10 µM | IC50 [4, 10]: > 10 µM | IC50 (Adenosine A1; [11]): > 10 µM | IC50 (Adenosine A2; [12]): > 10 µM | IC50 (GABAA): > 10 µM | IC50 (GABAB; [13]): > 10 µM

CC(C)(C)c1ccc(C(O)CCCN2CCC(C(O)(c3ccccc3)c3ccccc3)CC2)cc1 (centres unmarked) [Terfenadine]
ED50 [5]: ~7 mg/kg | protection against histamine bronchospasm ([5]; intraperitoneal): poorly efficient | protection against histamine bronchospasm [5, 14]: total protection of all the animals | duration of protection against histamine bronchospasm [6]: 4 h | IC50 (Muscarinic M2): > 10 µM | IC50 (Sigma receptor): > 10 µM | IC50 [3]: > 10 µM | IC50 [4]: > 10 µM | IC50 (Adenosine A1): > 10 µM | IC50 (Adenosine A2): > 10 µM | IC50 (GABAA): > 10 µM | IC50 (GABAB): > 10 µM

CC(C)(C)c1ccc(C(O)CCCN2CCN(c3nc4ccccc4n3Cc3ccc(F)cc3)CC2)cc1 (centres unmarked) [example III]
IC50 [7]: 1.1 µM | IC50 [8]: 2.7 µM | effect on histamine contraction of isolated ileon (receptors of H1-type; 10^-5 M): partially irreversible inhibition | activity compared with Terfenadine on isolated ileon (receptors of H1-type; 10^-5 M): the opposite seems to be produced | effect on histamine contraction of isolated ileon (receptors of H1-type; 10^-6 M): inhibition of the competitive type | activity compared with Terfenadine on isolated ileon (receptors of H1-type; 10^-6 M): slightly more active than Terfenadine | effect on histamine contraction of isolated ileon (receptors of H1-type; 10^-7 M): no effect | ED50 ([5]; intraperitoneal, from regression curve): ~6.7 mg/kg | protection against histamine bronchospasm ([5]; intraperitoneal): poorly efficient | protection against histamine bronchospasm [5, 14]: total protection of all the animals | duration of protection against histamine bronchospasm [6]: 12 h | animals with total protection (more than 5 minutes) at 24 hours ([6]; 24 hours): 50% | IC50 (Muscarinic M1): > 10 µM | IC50 (Muscarinic M2; pH 7.5, read-out: CI50 (the source's name)): > 10 µM | IC50 (Sigma receptor; rat whole brain, 2 nM [3H](+)3-PPP, pH 8, read-out: CI50 (the source's name)): > 10 µM | IC50 [3]: > 10 µM | IC50 [4, 10]: > 10 µM | IC50 (Adenosine A1; [11]): > 10 µM | IC50 (Adenosine A2; [12]): > 10 µM | IC50 (GABAA): > 10 µM | IC50 (GABAB; [13]): > 10 µM | behavioural alteration (Irwin's test) ([2]; maximal tested dosage 400 mg/kg, at 3 hours only): a very weak passivity in half of the animals | clinical symptoms, search for maximal non-toxic dosage [9]: do not display any clinical symptom | alteration of rota-rod performance ([1]; oral, until highest tested dosage 100 mg/kg, 30 and 60 mn, versus vehicle): did not alter the performances

Source: patent US5461059A, “Derivatives of terbutylphenyl-1-amino-4-hydroxybutane their preparation processes and the pharmaceutical compositions containing them” (priority 1990, dated 1995)
